# Assays:
# Assay type in all cases: in vivo, human
# Settings in all cases: i.v. infusion over 360 min, type 2 diabetic patients
# [1] = system: patients with type 2 diabetes; test: Insulin secretion rates by deconvolution of C-peptide
# [2] = system: patients with type 2 diabetes; test: Capillary plasma glucose during 360-min intravenous infusion
# [3] = system: patients with type 2 diabetes; test: Plasma free
# [4] = system: patients with type 2 diabetes; test: Plasma glucagon during 360-min intravenous infusion
structure (smiles),measurement,setting,value
"CC[C@H](C)[C@H](NC(=O)[C@H](CO)NC(=O)[C@H](Cc1ccc(O)cc1)NC(=O)[C@H](CC(=O)O)NC(=O)[C@H](CO)NC(=O)[C@@H](NC(=O)[C@H](Cc1ccccc1)NC(=O)[C@@H](NC(=O)CNC(=O)[C@H](CCC(=O)O)NC(=O)[C@H](C)NC(=O)[C@@H](N)Cc1ccc(O)cc1)[C@@H](C)O)[C@@H](C)CC)C(=O)N[C@@H](C)C(=O)N[C@@H](CCSC)C(=O)N[C@@H](CC(=O)O)C(=O)N[C@@H](CCCCN)C(=O)N[C@H](C(=O)N[C@@H](Cc1c[nH]cn1)C(=O)N[C@@H](CCC(N)=O)C(=O)N[C@@H](CCC(N)=O)C(=O)N[C@@H](CC(=O)O)C(=O)N[C@@H](Cc1ccccc1)C(=O)N[C@H](C(=O)N[C@@H](CC(N)=O)C(=O)N[C@@H](Cc1c[nH]c2ccccc12)C(=O)N[C@@H](CC(C)C)C(=O)N[C@@H](CC(C)C)C(=O)N[C@@H](C)C(=O)N[C@@H](CCC(N)=O)C(=O)N[C@@H](CCCCN)C(=O)NCC(=O)N[C@@H](CCCCN)C(=O)N[C@@H](CCCCN)C(=O)N[C@@H](CC(N)=O)C(=O)N[C@@H](CC(=O)O)C(=O)N[C@@H](Cc1c[nH]c2ccccc12)C(=O)N[C@@H](CCCCN)C(=O)N[C@@H](Cc1c[nH]cn1)C(=O)N[C@@H](CC(N)=O)C(=O)N[C@H](C(=O)N[C@H](C(=O)N[C@@H](CCC(N)=O)C(=O)O)[C@@H](C)O)[C@@H](C)CC)C(C)C)[C@@H](C)CC [GIP, glucose-dependent insulinotropic polypeptide]","Effect on insulin secretion (words; insulin, C-peptide, insulin secretory rates)",[1],hardly did so
same,Effect on glucose concentrations,[2],slight reduction
same,Effect on plasma concentrations of free fatty acids,[3],did not alter
same,Effect on glucagon concentrations,[4],tended to increase slightly
